Where a name gives a salt, the structure may show the parent alone.
Assays:
[1] = target: T1, hSK3 channels (Homo sapiens, UniProt Q9UGI6); experiment: whole-cell patch-clamp recording of SK3 current in HEK293 cells expressing hSK3 channels; type: cell-based; conditions: current at −75 mV, free Ca2+ 0.3-0.4 μM, room temperature, read-out: Kd value (concentration required for decreasing the baseline current to 50% of the initial current)
T1 construct: expressed in transfected cells; host or cells: HEK293
Method: The ionic current through small-conductance Ca^2+-activated K^+ channels (SK channels, subtype 3) was recorded using the whole-cell configuration of the patch-clamp technique.
HEK293 tissue culture cells expressing hSK3 channels were grown in DMEM (Dulbecco's Modified Eagle Medium) supplemented with 10% FCS (foetal calf serum) at 37° C. in 5% CO2. At 60-80% confluency, cells were harvested by trypsin treatment and seeded on cover slips.
Cells plated on coverslips were placed in a 15 μl perfusion chamber (flowrate ˜1 ml/min) mounted on an inverted microscope placed on a vibration-free table in a grounded Faraday cage. The experiments were performed at room temperature (20-22° C.). […] Data were stored directly on the hard-disk and analysed by IGOR software (Wavemetrics, Lake Oswega, Oreg., USA).
The whole-cell configuration of the patch-clamp technique was applied. […] Cell capacitance was electronically compensated and the resistance between the pipette and the cell interior (the series resistance, Rs) was measured and compensated for. […]
The intracellular (pipette) solution contained: 154 mM KCl, 10 mM HEPES, 10 mM EGTA. Concentrations of CaCl2 and MgCl2 needed to obtain the desired free concentrations of Ca^2+ (0.3-0.4 μM, Mg^2+ always 1 mM) were calculated by EqCal software (Cambridge, UK) and added. […]

Kd [1] | melting point | SMILES
< 1000 nM | – | N=C1N(Cc2ccc(F)c(F)c2)CCCN1Cc1ccc(F)c(F)c1 [Compound 7, 1,3-Bis-(3,4-difluorobenzyl)tetrahydropyrimidin-2-ylideneamine]
– | 238 to 240 °C | N=C1N(Cc2ccc(F)c(F)c2)[C@@H]2CCCC[C@H]2N1Cc1ccc(F)c(F)c1 (racemic) (as salt: salt) [Compound 5, (±)-trans-1,3-Bis-(3,4-difluoro-benzyl)octahydro-benzoimidazol-2-ylideneamine]
– | 220 to 224 °C | N=C1N(Cc2cc(F)c(F)cc2Br)Cc2ccccc2N1Cc1cc(F)c(F)cc1Br (as salt: salt) [Compound 9, 1,3-Bis-(2-bromo-4,5-difluorobenzyl)-3,4-dihydro-1H-quinazolin-2-ylideneamine]
< 1000 nM | – | COc1ccc(OC(F)(F)F)cc1CN1CCN(Cc2cc(OC(F)(F)F)ccc2OC)C1=N [Compound 15, 1,3-Bis-(2-methoxy-5-trifluoromethoxybenzyl)imidazolidin-2-ylideneamine]
– | 215 to 218 °C | N=C1N(Cc2ccc(F)c(F)c2)Cc2ccccc2N1Cc1ccc(F)c(F)c1 (as salt: salt) [Compound 4, 1,3-Bis-(3,4-difluorobenzyl)-3,4-dihydro-1H-quinazolin-2-ylideneamine]
